According to patent publication US20240360103A1, “COMPLEMENT INHIBITION” (Apellis Pharmaceuticals, Inc., priority 2021, published 2024):

Experiments:
complement activation = settings: relative to compstatin amidated at the C-terminus; published data; cited from earlier work
[1] = tested on: complement alternative pathway; test: Wieslab AP assay (Complement Alternative Pathway ELISA, human serum as source of complement); assay type: biochemical; settings: read-out: B: Wieslab AP IC50 (nM) (alternative pathway)
Text: Among other things, the present disclosure provides compounds and compositions that can modulate complement activation. In some embodiments, provided technologies inhibit complement activation. In some embodiments, provided technologies inhibit C3 convertase. Various technologies are available for assessing provided compounds, compositions and methods. In some embodiments, a useful assay is an assay described below. In some embodiments, IC50 of a provided compound measured in an assay is about or no more than about 1000, 900, 800, 700, 600, 500, 400, 300, 200, 100, 90, 80, 70, 60, 50, 40, 30, 20, or 10 nM. In some embodiments, a useful assay is a biochemical assay assessing inhibition of C3 convertase activity by a provided compound. In some embodiments, a purified, isolated or enriched C3 convertase is utilized. In some embodiments, CVF:Bb (e.g., assembled from three components Cobra Venom Factor (CVF), Complement Factor B (FB) and Complement Factor D (FD)) was utilized (certain results are presented as “A” in the Table below). In some embodiments, a compound was first contacted with CVF:Bb, followed by addition of C3 substrates. As those skilled in the art will appreciate, products C3a and/or C3b could be detected through a number of technologies (e.g., antibodies specific for a product) and reduction of levels of one or both of them could be utilized to assess inhibition. In some embodiments, a useful assay is Wieslab© assay (certain results are presented as “B” in the Table below).
In some embodiments, classical and alternative pathway activity are assessed using Wieslab© technologies. In some embodiments, Wieslab© assay were performed with a commercially available kit, using a protocol adapted for measurement of complement inhibitory activity of compounds. In some embodiments, human serum was utilized as a positive control. In some embodiments, human serum serves as a source of complement proteins, and inhibition of complement activity of a serum by various compounds were assessed. In some embodiments, a kit is COMPL AP330, Complement Alternative Pathway ELISA, Eagle Biosciences. In some embodiments, a kit is COMPL CP310, Complement Classical Pathway ELISA, Eagle Biosciences. In some embodiments, kits are available from VWR (102994-104, Complement Alternative pathway ELISA, Eagle Biosciences, Inc.; 102994-106, Complement Classical pathway ELISA, Eagle Biosciences, Inc.).
In some embodiments, a useful procedure described below is utilized. • 1. Make fresh test compound stock at 1 mM. • 2. Test compound serial dilution: dilute the stock to working stock concentrations. Add DMSO to dilution buffer using same dilution factor for the working stock so the composition of all the serial diluted stock is the same. In some embodiments, stock was serial diluted from the working stock 1:4 (for classical pathway) or 1:2 (for alternative pathway) using new diluted dilution buffers. • 3. Dilute positive controls using the dilution buffer provided with the assay kit to 2× of the final conc., for classical pathway, 50.5×. Positive control is human serum, which contains complement proteins. • 4. Add 125 μL of test compound solution and 125 μL of diluted positive control to a 96 well polypropylene plate, mix gently and cover the plate and incubate at 4° C. for 30 min. • 5. Add 100 μL/well to the assay plate and incubate at 37° C. for 1 h. Typically, controls in the assay plate, for example, buffer alone for negative control, positive control alone to verify the complement activity of the reagent. • 6. Wash plate and add 100 μL/well conjugate, incubate at room temperature for 30 min. • 7. Wash plate and add 100 μL/well substrate, then incubate at room temperature for approximately 30 minutes. Periodically monitor the absorbance at 405 nm (OD405) in the positive control alone well. • 8. Once the OD405 is >1, read the whole plate immediately. Or stop the reaction by adding 100 μL of 5 mM EDTA to each well and read within 60 minutes.

C3 convertase (CVF:Bb) = C3 convertase (CVF:Bb) (Homo sapiens, UniProt P00751); test: C3 Convertase Assay (biochemical assay, compound contacted with CVF:Bb, then C3 substrate added)
Text: Various technologies are available for assessing provided compounds, compositions and methods. In some embodiments, a useful assay is an assay described below. […] In some embodiments, a purified, isolated or enriched C3 convertase is utilized. […] In some embodiments, a compound was first contacted with CVF:Bb, followed by addition of C3 substrates. As those skilled in the art will appreciate, products C3a and/or C3b could be detected through a number of technologies (e.g., antibodies specific for a product) and reduction of levels of one or both of them could be utilized to assess inhibition.

Chain of C3 convertase (CVF:Bb) (P00751 260-764 limits assumed): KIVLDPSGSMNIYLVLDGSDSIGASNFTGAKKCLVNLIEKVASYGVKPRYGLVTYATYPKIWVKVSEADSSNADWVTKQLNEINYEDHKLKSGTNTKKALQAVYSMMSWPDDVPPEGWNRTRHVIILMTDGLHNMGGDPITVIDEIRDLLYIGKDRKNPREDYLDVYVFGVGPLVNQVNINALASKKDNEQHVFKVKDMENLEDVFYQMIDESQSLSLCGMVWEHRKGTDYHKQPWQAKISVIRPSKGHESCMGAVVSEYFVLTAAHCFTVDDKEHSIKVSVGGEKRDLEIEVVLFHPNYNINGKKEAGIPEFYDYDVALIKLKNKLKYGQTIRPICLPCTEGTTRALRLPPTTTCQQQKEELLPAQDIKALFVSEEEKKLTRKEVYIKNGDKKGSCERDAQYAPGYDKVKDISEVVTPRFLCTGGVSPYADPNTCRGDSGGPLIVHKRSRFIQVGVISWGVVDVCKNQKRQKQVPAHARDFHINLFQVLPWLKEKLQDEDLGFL

| Compound | Activity over compstatin (complement activation) [xmore] | IC50 [1] [nM] | IC50 (C3 convertase (CVF:Bb)) [µM] |
| --- | --- | --- | --- |
| Ac-ICVYQDWGAHRCT-CONH2 [Ac-V4Y/H9A] | 14 |  |  |
| Ac-ICVDhtQDWGAHRCT-COOH [Ac-V4Dht/H9A-OH] | 5 |  |  |
| Ac-ICV(2-Igl)QDWGAHRCT-COOH [Ac-V42Igl/H9A-OH] | 37 |  |  |
| Ac-ICV(1-Nal)QDWGAHRCT-COOH [Ac V4(1-Nal)/H9A-OH] | 30 |  |  |
| Ac-ICWVQDWGHHRCT-CONH2 (Ac-ICWVQDWGHHRCT-NH2; not fully specified (bridges); printed as Ac-ICWVQDWGHHRCT-CONH2; cysteine pairing not given here) [Ac-compstatin, "compstatin analogs useful in the present disclosure"] | 3 |  |  |
| Ac-ICV(Bpa)QDWGAHRCT-COOH [Ac-V4(Bpa)/H9A-OH] | 49 |  |  |
| Ac-ICV(Bpa)QDWGAHRCT-CONH2 [Ac-V4(Bpa)/H9A] | 86 |  |  |
| H-GICV(6fW)QD(6fW)GAHRCTN-COOH [+G/V4(6fW)/W7(6fW)H9A + N-OH] | 126 |  |  |
| Ac-ICVWQD(5fW)GAHRCT-CONH2 [Ac-V4W/W7(5fW)/H9A] | 121 |  |  |
| COc1cc(C)c2[nH]ccc2c1CN1CCN(CCC(F)(F)F)C[C@H]1c1ccc(C(=O)O)cc1 |  | 13 | 0.029 |
| COc1cc(C)c2[nH]ccc2c1CN1CCN(Cc2ncc[nH]2)C[C@H]1c1ccc(C(=O)O)cc1 |  | 8860 | > 10 |
| C=CCN1CCN(Cc2c(OC)cc(C)c3[nH]ccc23)C(c2ccc(C(=O)O)cc2)C1 (stereo not shown) |  | 1490 | 0.25 |
| Ac-ICV(2-Igl)QDWGAHRCT-CONH2 [Ac-V42Igl/H9A] | 39 |  |  |
| CCN1CCN(Cc2c(OC)cc(C)c3[nH]ccc23)C(c2ccc(C(=O)O)cc2)C1 (stereo not shown) |  | 205 | 0.219 |
| COc1cc(C)c2[nH]ccc2c1CN1CC(=O)N(C)C[C@H]1c1ccc(C(=O)O)cc1 |  | 1000 | 6.4 |
| Ac-ICV(2-Nal)QDWGAHRCT-COOH [Ac V4(2-Nal)/H9A-OH] | 38 |  |  |
| COc1cc(C)c2[nH]ccc2c1CN1CCN(C(C)C(F)F)C[C@H]1c1ccc(C(=O)O)cc1 (stereo partly shown) |  | 230 | 0.228 |
| Ac-ICV(2-Nal)QDWGAHRCT-CONH2 [Ac-V4(2-Nal)/H9A] | 99 |  |  |
| Ac-ICVWQDWGAHRCdT-COOH [Ac-V4W/H9A/T13dT-OH] | 55 |  |  |
| COc1cc(C)c2[nH]ccc2c1CN1CCN(CCC(F)(F)F)C[C@@H]1c1ccc(C(=O)O)nc1 |  | > 10000 | 6.44 |
| COc1cc(C)c2[nH]ccc2c1CN1CCN(CCC(F)(F)F)C[C@H]1c1ccc(C(=O)O)nc1 |  | 34 | 0.096 |
| Ac-ICVWQDWGAHRCT-CONH2 (Ac-ICVWQDWGAHRCT-NH2; cysteine pairing not given here) [Ac-V4W/H9A, "compstatin analogs useful in the present disclosure"] | 45 |  |  |
| COc1cc(C)c2[nH]ccc2c1CN1CCN(CCC(F)(F)F)C[C@H]1c1ccc(C(=O)NS(C)(=O)=O)cc1 |  | 65 | 0.056 |
| COc1cc(C)c2[nH]ccc2c1CN1CCN(C)CC1c1ccc(C(=O)O)cc1 (stereo not shown) |  | 1570 | 0.163 |
